Laboratory results published in patent US4822818A, “Bicycle compounds, their production and use” (Takeda Chemical Industries, Ltd., priority 1980, dated 1989).
Counter-ions that a name gives are not always drawn.

Columns and labels:
Angiotensin I = test: Effect of present compounds against hypertensive activity of angiotensin I in rats, oral administration; format: in vivo, Male rats (Sprague-Dawley); conditions: rat, oral 13.8 μM/kg, angiotensin I 300 ng/kg i.v., corrected by angiotensin II reaction; for Percent Inhibition against Hypertensive Reaction by Angiotensin I, After 20 min.: 20 min after administration; for Percent Inhibition against Hypertensive Reaction by Angiotensin I, After 60 min.: 60 min after administration; for Percent Inhibition against Hypertensive Reaction by Angiotensin I, After 120 min.: 120 min after administration
Experimental: Effect of Present Compounds against Hypertensive Activity of Angiotensin I
Male rats (Sprague-Dawley) weighing 250 g to 350 g which were fed under free access to drinking water and feeds were used as experimental animals. The rats were anesthetized with intraperitoneal administration of pentobarbital sodium (50 mg/kg) on the day before the test day and a polyethylene tube was inserted into each of the femoral artery for measurement of blood pressure and the femoral vein for injection of angiotensin I and II, and then the tubes were fixed.
On the test day, an average blood pressure in the control phase was recorded on an electric hemodynamometer (MP-4T model manufactured by Nippon Koden, Japan) and thereafter angiotensin I and then angiotensin II were injected through the femoral vein at a dose of 300 ng/kg and 100 ng/kg respectively, to measure the hypertensive activity. Then, 13.8 μM/kg of the compound of this invention was administered orally as an aqueous solution or an aqueous gum arabic suspension, and 20, 60 and 120 minutes after the administration, angiotensin I and II were injected repeatedly to trace hypertensive reactions. In calculating the percent inhibition to the hypertensive activity of angiotensin I, the percent inhibitory value was corrected based on the variation with time in the hypertensive reaction by angiotensin II.

[1] = target: T1, Angiotensin I Converting Enzyme (ACE) (Oryctolagus cuniculus, UniProt P12822); test: Inhibition of Angiotensin I Converting Enzyme (ACE), substrate hippuryl-L-histidyl-L-leucine (HHL), hippuric acid produced; format: biochemical; conditions: pH 8.3, 37° C., one hour, read-out: Inhibitory Activity on ACE; for inhibition at 1 µM: Concentration 1 μM; for inhibition at 10 µM: Concentration 10 μM
T1 sequence (P12822 34-1310): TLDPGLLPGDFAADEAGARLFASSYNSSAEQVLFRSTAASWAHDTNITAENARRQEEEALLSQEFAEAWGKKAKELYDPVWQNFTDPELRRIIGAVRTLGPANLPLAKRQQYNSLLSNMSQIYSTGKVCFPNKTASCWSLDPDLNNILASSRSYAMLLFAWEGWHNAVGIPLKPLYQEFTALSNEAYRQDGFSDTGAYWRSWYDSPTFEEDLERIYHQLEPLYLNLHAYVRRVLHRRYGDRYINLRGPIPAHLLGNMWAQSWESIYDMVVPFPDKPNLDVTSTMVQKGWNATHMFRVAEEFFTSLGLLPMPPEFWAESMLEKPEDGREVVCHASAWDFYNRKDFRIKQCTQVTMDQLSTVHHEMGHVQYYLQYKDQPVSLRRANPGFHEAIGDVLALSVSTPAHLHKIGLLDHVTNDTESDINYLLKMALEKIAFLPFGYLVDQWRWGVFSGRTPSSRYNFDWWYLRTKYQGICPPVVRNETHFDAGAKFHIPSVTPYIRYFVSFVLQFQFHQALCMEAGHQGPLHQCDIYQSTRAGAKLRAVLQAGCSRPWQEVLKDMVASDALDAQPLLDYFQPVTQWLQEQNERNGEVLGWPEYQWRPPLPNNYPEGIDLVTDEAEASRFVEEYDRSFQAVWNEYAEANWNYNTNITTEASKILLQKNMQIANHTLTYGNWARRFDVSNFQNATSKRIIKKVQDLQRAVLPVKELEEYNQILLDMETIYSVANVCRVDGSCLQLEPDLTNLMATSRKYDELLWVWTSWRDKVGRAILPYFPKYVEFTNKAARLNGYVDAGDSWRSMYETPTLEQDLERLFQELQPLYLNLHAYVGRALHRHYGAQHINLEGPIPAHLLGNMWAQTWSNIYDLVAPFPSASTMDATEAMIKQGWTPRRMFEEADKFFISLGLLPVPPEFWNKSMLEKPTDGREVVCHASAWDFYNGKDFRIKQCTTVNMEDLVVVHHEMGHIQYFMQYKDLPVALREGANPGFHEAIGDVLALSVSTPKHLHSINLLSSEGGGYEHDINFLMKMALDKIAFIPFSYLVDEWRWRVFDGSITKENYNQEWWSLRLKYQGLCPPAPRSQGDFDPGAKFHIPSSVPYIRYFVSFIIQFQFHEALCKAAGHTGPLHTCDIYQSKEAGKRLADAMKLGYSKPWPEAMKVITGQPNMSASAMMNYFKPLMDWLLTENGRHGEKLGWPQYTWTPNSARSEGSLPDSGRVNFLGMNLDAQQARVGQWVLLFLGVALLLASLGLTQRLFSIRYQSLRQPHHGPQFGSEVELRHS
Experimental: Inhibitions of Angiotensin I Converting Enzyme (ACE) by the Compounds of this Invention. The experiment was conducted in accordance with a modification of the method described by Cushman et al. [Biochemical Pharmacology, Vol. 20, 1637(1971)]. That is, using hippuryl-L-histidyl-L-leucine(HHL) as the substrate, the ACE inhibitory activity was determined in terms of percent inhibition on the amount of hippuric acid produced by ACE when the present compound was added. […] In this experiment, a potassium phosphate buffer solution containing dimethyl sulfoxide at a concentration equal to that of the test solution was used as a control. After incubating the solution at 37° C. for one hour, 150 μl of 1N hydrochloric acid was added to the solution to terminate the reaction. After 1 ml of ethyl acetate was added, the solution was centrifuged at 3000 r.p.m. for 10 minutes. A 0.5 ml aliquot was separated from the ethyl acetate layer and dried at a temperature below 50° C. under nitrogen gas streams. The residue was mixed with 5 ml of 1M aqueous sodium chloride and the mixture was subjected to colorimetry at a wavelength of 228 nm.

SMILES: CCOC(=O)C(CCc1ccccc1)N[C@@H](C)C(=O)N(CC(=O)O)C1Cc2ccccc2C1.Cl (stereo partly drawn) [Example 1, N-(1-ethoxycarbonyl-3-phenylpropyl)-L-alanyl-N-(indan-2-yl)glycine hydrochloride]
- Percent Inhibition against Hypertensive Reaction by Angiotensin I, After 20 min. (Angiotensin I): 93%
- Percent Inhibition against Hypertensive Reaction by Angiotensin I, After 60 min. (Angiotensin I): 88%
- Percent Inhibition against Hypertensive Reaction by Angiotensin I, After 120 min. (Angiotensin I): 77%
- inhibition at 1 µM [1]: 87%
- inhibition at 10 µM [1]: 97%

SMILES: CCCOC(=O)C(CCc1ccccc1)N[C@@H](C)C(=O)N(CC(=O)O)C1Cc2ccccc2C1.Cl (stereo partly drawn) [Example 7, N-(1-propoxycarbonyl-3-phenylpropyl)-L-alanyl-N-(indan-2-yl)glycine hydrochloride]
- Percent Inhibition against Hypertensive Reaction by Angiotensin I, After 20 min. (Angiotensin I): 84%
- Percent Inhibition against Hypertensive Reaction by Angiotensin I, After 60 min. (Angiotensin I): 91%
- Percent Inhibition against Hypertensive Reaction by Angiotensin I, After 120 min. (Angiotensin I): 96%
- inhibition at 1 µM [1]: 91%
- inhibition at 10 µM [1]: 97%

SMILES: CCCCOC(=O)C(CCc1ccccc1)N[C@@H](C)C(=O)N(CC(=O)O)C1Cc2ccccc2C1 (stereo partly drawn) [Example 8, N-(1-butoxycarbonyl-3-phenylpropyl)-L-alanyl-N-(indan-2-yl)glycine hydrochloride]
- inhibition at 1 µM [1]: 69%
- inhibition at 10 µM [1]: 99%

SMILES: CC(C)OC(=O)C(CCc1ccccc1)N[C@@H](C)C(=O)N(CC(=O)O)C1Cc2ccccc2C1.Cl (stereo partly drawn) [Example 9, N-(1-isopropoxycarbonyl-3-phenylpropyl)-L-alanyl-N-(indan-2-yl)glycine hydrochloride]
- Percent Inhibition against Hypertensive Reaction by Angiotensin I, After 20 min. (Angiotensin I): 88%
- Percent Inhibition against Hypertensive Reaction by Angiotensin I, After 60 min. (Angiotensin I): 71%
- Percent Inhibition against Hypertensive Reaction by Angiotensin I, After 120 min. (Angiotensin I): 51%
- inhibition at 1 µM [1]: 72%
- inhibition at 10 µM [1]: 95%

SMILES: CCOC(=O)[C@H](CCc1ccc(OC)c(OC)c1)N[C@@H](C)C(=O)N(CC(=O)O)C1Cc2ccccc2C1.Cl [Example 15, N-[1-(S)-ethoxycarbonyl-3-(3,4-dimethoxyphenyl)propyl]-L-alanyl-N-(indan-2-yl)glycine hydrochloride]
- Percent Inhibition against Hypertensive Reaction by Angiotensin I, After 20 min. (Angiotensin I): 84%
- Percent Inhibition against Hypertensive Reaction by Angiotensin I, After 60 min. (Angiotensin I): 80%
- Percent Inhibition against Hypertensive Reaction by Angiotensin I, After 120 min. (Angiotensin I): 65%

SMILES: C[C@H](N[C@@H](CCc1ccccc1)C(=O)O)C(=O)N(CC(=O)O)C1Cc2ccccc2C1 [Example 19, N-(1-(S)-carboxyl-3-phenylpropyl)-L-alanyl-N-(indan-2-yl)glycine]
- inhibition at 1 µM [1]: 95%
- inhibition at 10 µM [1]: 98%
